According to US9416129B2, “Tricyclic substituted thiadiazine dioxide compounds as BACE inhibitors, compositions and their use” (Merck Sharp & Dohme Corp., priority 2012, dated 2016):

Legend:
human autoBACE-2 = human autoBACE-2 (Homo sapiens (Human), UniProt Q9Y5Z0); assay: BACE-2 assay (BACE-HTRF, time-resolved endpoint proteolysis); assay type: biochemical; conditions: Ki calculated from IC50 using the Cheng-Prusoff equation; read-out: BACE2 Ki
Method: Inhibitor IC50s at purified human autoBACE-2 are determined in a time-resolved endpoint proteolysis assay that measures hydrolysis of the QSY7-[…]-Eu-amide FRET peptide substrate (BACE-HTRF assay). […] DMSO is present at 5% final concentration in the assay. Following laser excitation of sample wells at 320 nm, the fluorescence signal at 620 nm is collected for 400 ms following a 50 μs delay on a RUBYstar HTRF plate reader (BMG Labtechnologies). Raw RFU data is normalized to maximum (1.0 nM BACE/DMSO) and minimum (no enzyme/DMSO) RFU values. […] The Ki values are calculated from the IC50 using the Cheng-Prusoff equation.

[1] = target: soluble human BACE1 catalytic domain (Homo sapiens (Human), UniProt P56817); assay: BACE1 HTRF FRET assay; assay type: biochemical; conditions: for Ki: Ki calculated from IC50 using the Cheng-Prusoff equation
From the text: Na^+-Acetate pH 5.0; 1% Brij-35; Glycerol; Dimethyl Sulfoxide (DMSO); Recombinant human soluble BACE1 catalytic domain (>95% pure); APP Swedish mutant peptide substrate (QSY7-APP^swe-Eu): QSY7-[…]-Europium-amide.
A homogeneous time-resolved FRET assay can be used to determine IC50 values for inhibitors of the soluble human BACE1 catalytic domain. This assay monitors the increase of 620 nm fluorescence that resulted from BACE1 cleavage of an APPswedish APP^swe mutant peptide FRET substrate (QSY7-[…]-Europium-amide). This substrate contains an N-terminal QSY7 moiety that serves as a quencher of the C-terminal Europium fluorophore (620 nm Em). In the absence of enzyme activity, 620 nm fluorescence is low in the assay and increased linearly over 3 hours in the presence of uninhibited BACE1 enzyme Inhibition of BACE1 cleavage of the QSY7-APP^swe-Eu substrate by inhibitors is manifested as a suppression of 620 nm fluorescence.
Varying concentrations of inhibitors at 3× the final desired concentration in a volume of 10 ul are preincubated with purified human BACE1 catalytic domain (3 nM in 10 μl) for 30 minutes at 30° C. in reaction buffer containing 20 mM Na-Acetate pH 5.0, 10% glycerol, 0.1% Brij-35 and 7.5% DSMO. Reactions are initiated by addition of 10 μl of 600 nM QSY7-APP^swe-Eu substrate (200 nM final) to give a final reaction volume of […] in a 384 well Nunc HTRF plate. The reactions are incubated at 30° C. for 1.5 hours. The 620 nm fluorescence is then read on a Rubystar HTRF plate reader (BMG Labtechnologies) using a 50 millisecond delay followed by a 400 millisecond acquisition time window. Inhibitor IC50 values are derived from non-linear regression analysis of concentration response curves.

human P-glycoprotein = human P-glycoprotein (Homo sapiens (Human), UniProt P08183); assay: Pgp Mdr1 efflux ratio; assay type: in vitro ADME; conditions: for Pgp Mdr1 ER: efflux ratio, human P-glycoprotein
Cathepsin-D = Cathepsin-D (Homo sapiens (Human), UniProt P07339); assay: Cathepsin-D inhibition (selectivity); assay type: biochemical
Chain of Cathepsin-D (P07339 65-412, species assumed): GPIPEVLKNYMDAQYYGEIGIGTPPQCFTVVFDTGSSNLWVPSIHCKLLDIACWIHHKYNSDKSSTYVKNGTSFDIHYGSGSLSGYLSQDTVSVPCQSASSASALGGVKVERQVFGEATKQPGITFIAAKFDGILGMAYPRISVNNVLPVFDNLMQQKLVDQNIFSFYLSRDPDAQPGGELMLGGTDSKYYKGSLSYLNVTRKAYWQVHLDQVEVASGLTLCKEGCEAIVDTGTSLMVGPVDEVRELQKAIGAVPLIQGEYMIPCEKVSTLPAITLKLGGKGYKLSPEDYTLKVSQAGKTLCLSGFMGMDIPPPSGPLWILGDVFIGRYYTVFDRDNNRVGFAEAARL

Chain of soluble human BACE1 catalytic domain (P56817 75-416): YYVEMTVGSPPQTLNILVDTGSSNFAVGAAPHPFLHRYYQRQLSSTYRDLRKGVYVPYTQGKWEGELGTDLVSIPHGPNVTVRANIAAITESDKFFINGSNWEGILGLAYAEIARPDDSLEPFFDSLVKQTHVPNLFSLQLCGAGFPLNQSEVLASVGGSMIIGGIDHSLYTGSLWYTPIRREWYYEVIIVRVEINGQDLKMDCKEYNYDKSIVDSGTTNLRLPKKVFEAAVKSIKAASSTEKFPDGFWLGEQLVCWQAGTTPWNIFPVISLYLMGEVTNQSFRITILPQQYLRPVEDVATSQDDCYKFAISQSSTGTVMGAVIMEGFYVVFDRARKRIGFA
Chain of human autoBACE-2 (Q9Y5Z0 63-473 limits assumed): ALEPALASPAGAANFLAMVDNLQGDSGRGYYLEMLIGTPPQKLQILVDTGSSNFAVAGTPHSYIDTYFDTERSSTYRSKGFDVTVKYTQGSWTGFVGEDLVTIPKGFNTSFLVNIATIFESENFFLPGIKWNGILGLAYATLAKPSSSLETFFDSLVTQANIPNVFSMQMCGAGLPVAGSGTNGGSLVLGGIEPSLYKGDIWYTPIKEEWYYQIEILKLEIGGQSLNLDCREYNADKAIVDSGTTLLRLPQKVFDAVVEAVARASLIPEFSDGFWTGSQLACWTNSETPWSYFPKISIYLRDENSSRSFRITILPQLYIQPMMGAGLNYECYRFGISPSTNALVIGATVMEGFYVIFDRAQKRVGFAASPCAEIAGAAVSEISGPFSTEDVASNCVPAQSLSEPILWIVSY
Chain of human P-glycoprotein (P08183 whole entry): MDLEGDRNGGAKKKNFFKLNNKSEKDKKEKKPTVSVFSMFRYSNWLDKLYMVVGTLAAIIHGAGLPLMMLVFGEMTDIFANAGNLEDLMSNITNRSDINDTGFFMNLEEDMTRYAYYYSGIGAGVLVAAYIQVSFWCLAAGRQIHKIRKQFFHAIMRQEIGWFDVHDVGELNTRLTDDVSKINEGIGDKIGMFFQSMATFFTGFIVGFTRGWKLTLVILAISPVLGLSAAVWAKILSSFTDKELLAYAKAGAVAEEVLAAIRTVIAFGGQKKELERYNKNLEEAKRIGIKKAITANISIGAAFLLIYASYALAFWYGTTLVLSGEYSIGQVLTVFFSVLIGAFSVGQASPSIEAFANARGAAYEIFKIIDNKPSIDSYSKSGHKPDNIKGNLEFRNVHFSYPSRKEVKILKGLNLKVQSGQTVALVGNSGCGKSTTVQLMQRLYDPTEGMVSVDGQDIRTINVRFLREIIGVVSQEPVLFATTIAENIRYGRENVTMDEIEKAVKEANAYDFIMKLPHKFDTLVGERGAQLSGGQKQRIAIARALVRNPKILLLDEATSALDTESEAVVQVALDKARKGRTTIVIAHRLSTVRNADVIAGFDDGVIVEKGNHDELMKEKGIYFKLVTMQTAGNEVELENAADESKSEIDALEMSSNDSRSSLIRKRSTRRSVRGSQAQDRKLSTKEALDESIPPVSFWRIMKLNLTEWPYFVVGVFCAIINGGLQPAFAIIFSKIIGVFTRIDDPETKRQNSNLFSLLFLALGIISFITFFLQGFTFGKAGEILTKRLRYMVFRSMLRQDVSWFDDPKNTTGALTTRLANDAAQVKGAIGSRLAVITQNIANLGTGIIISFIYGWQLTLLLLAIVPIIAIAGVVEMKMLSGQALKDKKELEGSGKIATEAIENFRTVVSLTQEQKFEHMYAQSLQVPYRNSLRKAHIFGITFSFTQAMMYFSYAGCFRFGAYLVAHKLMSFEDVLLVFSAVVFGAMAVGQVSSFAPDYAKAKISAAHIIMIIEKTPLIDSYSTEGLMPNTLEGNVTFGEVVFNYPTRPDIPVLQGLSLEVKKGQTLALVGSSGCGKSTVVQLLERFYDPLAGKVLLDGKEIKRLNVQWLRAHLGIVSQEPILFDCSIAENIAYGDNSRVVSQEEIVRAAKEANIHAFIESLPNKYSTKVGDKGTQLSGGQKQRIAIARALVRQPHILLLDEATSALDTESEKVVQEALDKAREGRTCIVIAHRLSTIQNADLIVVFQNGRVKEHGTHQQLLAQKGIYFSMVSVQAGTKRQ

| SMILES | Ki (human autoBACE-2) [nM] | Ki [1] [nM] | Pgp Mdr1 ER (human P-glycoprotein) | BACE potency (in words) [1] | Pgp susceptibility (in words) (human P-glycoprotein) | Ki (Cathepsin-D; read-out: Cath-D Ki) [nM] | Cathepsin-D selectivity (in words) (Cathepsin-D; selectivity for BACE over Cathepsin-D) |
| --- | --- | --- | --- | --- | --- | --- | --- |
| CN1C(=N)N[C@](C)(c2sc(-c3cccc(-c4ncco4)c3)cc2F)CS1(=O)=O [Example 7] | 0.73 | 8.7 | 1.7 |  |  |  |  |
| CN1C(=N)N[C@](C)(c2sc(-c3cccc(-c4cnco4)c3)cc2Cl)CS1(=O)=O [Example 11] | 2 | 1.7 | 1.3 |  |  |  |  |
| CN1C(=N)N[C@](C)(c2sc(-c3cccc(-c4cnco4)c3)cc2F)CS1(=O)=O [Example 12] | 3.7 | 3.3 | 1.8 |  |  |  |  |
| CN1C(=N)N[C@](C)(c2sc(-c3cccc(-c4ccno4)c3)cc2F)CS1(=O)=O [Example 14] | 3.5 | 6.9 | 1.6 |  |  |  |  |
| CN1C(=N)N[C@](C)(c2sc(-c3cccc(-c4nnc(C5CC5)o4)c3)cc2Cl)CS1(=O)=O [Example 17] | 2.2 | 203 | 1.0 |  |  |  |  |
| CN1C(=N)N[C@](C)(c2sc(-c3cccc(-c4nnc(C5CC5)o4)c3)cc2F)CS1(=O)=O [Example 18] | 4.2 | 177 | 0.53 |  |  |  |  |
| CN1C(=N)N[C@](C)(c2sc(-c3cc(F)cc(-c4cnco4)c3)cc2Cl)CS1(=O)=O [Example 23] | 4.8 | 11.4 | 0.90 |  |  |  |  |

More lines, now with the values ahead:

| Ki (human autoBACE-2) [nM] | Ki [1] [nM] | Pgp Mdr1 ER (human P-glycoprotein) | BACE potency (in words) [1] | Pgp susceptibility (in words) (human P-glycoprotein) | Ki (Cathepsin-D; read-out: Cath-D Ki) [nM] | Cathepsin-D selectivity (in words) (Cathepsin-D; selectivity for BACE over Cathepsin-D) | SMILES |
| --- | --- | --- | --- | --- | --- | --- | --- |
| 4.8 | 12.5 | 1.1 |  |  |  |  | CN1C(=N)N[C@](C)(c2sc(-c3cc(F)cc(-c4cnco4)c3)cc2F)CS1(=O)=O [Example 25] |
| 3.6 | 29.1 | 1.7 |  |  |  |  | Cc1noc(-c2cccc(-c3cc(F)c([C@]4(C)CS(=O)(=O)N(C)C(=N)N4)s3)c2)n1 [Example 38] |
| 0.35 | 13.4 | 0.34 |  |  |  |  | Cc1nc(-c2cccc(-c3cc(Cl)c([C@]4(C)CS(=O)(=O)N(C)C(=N)N4)s3)c2)no1 [Example 41] |
| 1.1 | 25.4 | 1.2 |  |  |  |  | Cc1nc(-c2cccc(-c3cc(F)c([C@]4(C)CS(=O)(=O)N(C)C(=N)N4)s3)c2)no1 [Example 42] |
| 0.41 | 3.3 | 0.70 |  |  |  |  | CN1C(=N)N[C@](C)(c2sc(-c3cccc(-c4ncon4)c3)cc2Cl)CS1(=O)=O [Example 46] |
| 0.34 | 3.9 | 1.7 |  |  |  |  | CN1C(=N)N[C@](C)(c2sc(-c3cccc(-c4ncon4)c3)cc2F)CS1(=O)=O [Example 47] |
| 16 | 10 | 0.78 | good BACE potency | low Pgp susceptibility | 6970 | good Cathepsin-D selectivity | CN1C(=N)N[C@](C)(c2sc3c(-c4ccc(-n5cccn5)nc4)nccc3c2Cl)CS1(=O)=O [Example 80] |
